Measured values taken from ChEMBL document CHEMBL1155582, “Bioactive constituents of Thuja occidentalis” (J Nat Prod, 2000).
The source made the active and inactive calls. No cut-off for these calls is given here.

How the values were obtained:
[1] = target: T1, Ornithine decarboxylase (Mus musculus) (UniProt P00860); test: Inhibition of 12-O-tetradecanoylphorbol 13-acetate-induced ornithine decarboxylase activity in mouse ME308 cells; format: cell-based
T1 sequence (whole entry): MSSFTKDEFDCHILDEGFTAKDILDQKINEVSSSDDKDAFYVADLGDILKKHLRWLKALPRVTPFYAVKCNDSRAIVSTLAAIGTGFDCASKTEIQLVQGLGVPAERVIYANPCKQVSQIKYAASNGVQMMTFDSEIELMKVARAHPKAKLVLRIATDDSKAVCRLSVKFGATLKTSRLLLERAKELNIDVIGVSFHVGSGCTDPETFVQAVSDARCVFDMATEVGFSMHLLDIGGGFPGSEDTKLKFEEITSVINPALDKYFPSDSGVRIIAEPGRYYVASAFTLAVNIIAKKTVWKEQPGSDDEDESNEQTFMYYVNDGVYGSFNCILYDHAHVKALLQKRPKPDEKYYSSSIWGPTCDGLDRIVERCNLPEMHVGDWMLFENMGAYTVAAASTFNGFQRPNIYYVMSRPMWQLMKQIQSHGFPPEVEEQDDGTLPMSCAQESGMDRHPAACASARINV

[2] = Inhibition of 12-O-tetradecanoylphorbol 13-acetate-induced transformation of mouse JB6 cells after 14 days by soft agar transformation assay; format: functional
KB = test: Cytotoxicity against human KB cells; format: functional, cell-based
[3] = (§1) Cytotoxicity against mouse JB6 cells by trypan blue exclusion test; format: functional, cell-based
JB6 = test: as §1; format: functional, cell-based

Compound	Activity [1] [µM]	Activity [2] [µM]	IC50 (KB) [µM]	IC50 [3] [µM]	Activity (JB6)
COc1cc([C@H]2c3cc4c(cc3C[C@H]3COC(=O)[C@H]32)OCO4)cc(OC)c1OC [ISOPICRODEOXYPODOPHYLLOTOXIN]	0.55	0.18	–	–	Active
C=C[C@]1(C)C=C2C(=O)C[C@@H]3[C@](C)(CCC[C@@]3(C)C(=O)O)[C@H]2CC1	0.5	11.7	> 60	> 60	–
COc1cc(C[C@H]2C(=O)OC[C@@H]2Cc2ccc3c(c2)OCO3)cc(OC)c1OC	6.5	3.75	–	–	Active
COc1cc([C@@H]2c3cc4c(cc3C[C@H]3COC(=O)[C@@H]32)OCO4)cc(OC)c1OC [DESOXYPODOPHYLLOTOXIN]	< 0.08	0.004	–	–	Active

The next lines start with results.

Activity [1] [µM]	Compound	Activity [2] [µM]	IC50 (KB) [µM]	IC50 [3] [µM]	Activity (JB6)
0.86	C=C[C@@]1(C)CC[C@H]2C(=CC[C@@H]3[C@]2(C)CCC[C@@]3(C)C(=O)O)C1 [ISOPIMARIC ACID]	13.2	> 60	> 60	–
0.6	CC1=C(/C=C/C(C)=C/C=C/C(C)=C\C(=O)O)C(C)(C)CCC1 [ISOTRETINOIN]	0.021	–	–	–
0.98	C=C[C@@]1(C)CCC2=C(C1)C(=O)C[C@H]1[C@](C)(C(=O)O)CCC[C@]21C	12.6	> 60	> 60	–
